Measured values: PMC10144566, “Pharmacokinetic Profile Evaluation of Novel Combretastatin Derivative, LASSBio-1920, as a Promising Colorectal Anticancer Agent” (Pharmaceutics, 2023)
Where two headings read alike, the source gives them in different places.

Assays:
MDA -MB231 = tested on: MDA -MB231; design: method as in PMID 23459143; settings: 24 h incubation; cited from earlier work
N-87, gastric carcinoma = test: MTT cytotoxicity assay, N-87; settings: Homo sapiens, 72 h, read-out: IC50 (95% CI) N-87
Method: (§1) The cytotoxicity of the compounds was determined using the MTT assay [13]. Cells were seeded in 96-well plates as follows: 0.7 × 10^5 cells/well for adherent cancer cells, 0.3 × 10^5 cells/well for suspended cancer cells, and 0.2 × 10^5 cells/well for HPBMCs. […] The control group was treated with the vehicle. […] After incubation, the supernatant was decanted and replaced with fresh medium containing MTT (0.5 mg/mL).

[1] = tested on: HPBMC, human peripheral blood mononuclear cells; test: MTT cytotoxicity assay, HPBMC; type: cell-based; settings: PBMC, 72 h incubation, read-out: IC50 (95% CI) HPBMC
Method: Heparinized blood was collected from healthy, non-smoking donors who had not taken any drugs during the 15 days prior to sampling. Human peripheral blood mononuclear cells (HPBMC) were isolated by a standard density-gradient centrifugation method over Ficoll-Hypaque® media (Merck-Sigma-Aldrich, St. Louis, MO, USA). HPBMC were washed and resuspended in RPMI-1640 medium supplemented with 20% fetal bovine serum, 2 mM glutamine, 100 U/mL penicillin, and 100 µg/mL streptomycin at 37 °C with 5% CO2. Phytohemagglutinin (3%) was added at the beginning of the culture.
The cytotoxicity of the compounds was determined using the MTT assay. Cells were seeded in 96-well plates as follows: 0.7 × 10^5 cells/well for adherent cancer cells, 0.3 × 10^5 cells/well for suspended cancer cells, and 0.2 × 10^5 cells/well for HPBMCs. The treatments were dissolved in DMSO and added to each well using an automated liquid handler for high-throughput screening (Biomek 3000—Beckman Coulter, Inc., Fullerton, CA, USA) and incubated for either 24, 48, and 72 h. The control group was treated with the vehicle. […] After incubation, the supernatant was decanted and replaced with fresh medium containing MTT (0.5 mg/mL). Three hours later, the MTT’s formazan product was dissolved in 150 µL of pure DMSO, and absorbance was measured at 595 nm (DTX 880 Multimode Detector, Beckman Coulter, Inc., Pasadena, CA, USA).
Data were presented as mean ± standard error of the mean (SEM) from three independent experiments performed in triplicate, calculated using Prism 8.0 (GraphPad/Intuitive Software for Science, San Diego, CA, USA). The IC50 of the compounds was obtained using a non-linear regression of the cytotoxicity curves.

SF-295, glioblastoma = test: MTT cytotoxicity assay, SF-295; settings: Homo sapiens, SF-295, 72 h, read-out: IC50 (95% CI) SF-295
Method: as §1

[2] = tested on: H-1975, non-small cell lung adenocarcinoma; test: MTT cytotoxicity assay, H-1975; settings: Homo sapiens, NCI-H1975, 72 h, read-out: IC50 (95% CI) H-1975
Method: as §1

[3] = tested on: HCT-116 human colorectal cancer cells (colon carcinoma); test: MTT cytotoxicity assay, HCT-116; settings: for IC50: Homo sapiens; for SI HPBMC/HCT-116: IC50 for HPBMC/IC50 for the tumor cell line, 72 h
Method: as §1

MCF-7 = tested on: MCF-7; design: method as in PMID 23459143; settings: 24 h incubation; cited from earlier work
[4] = tested on: PC-3, prostate adenocarcinoma; test: MTT cytotoxicity assay, PC-3; settings: Homo sapiens, 72 h, read-out: IC50 (95% CI) PC-3
Method: as §1

[5] = tested on: PC-9, lung adenocarcinoma (overexpressed EGFR with L858R mutation); test: MTT cytotoxicity assay, PC-9; settings: for SI HPBMC/PC-9: IC50 for HPBMC/IC50 for the tumor cell line
Method: as §1

PAMPA-BBB permeability = type: in vitro ADME; settings: for Pe1 (Experimental): replicate 1; for Pe2 (Experimental): replicate 2; for Papp: PAMPA
Method: (§2) For this, two 96-well plates were placed one above the other, and between them, an artificial hydrophobic polyvinylidene fluoride (PVDF) membrane, which was impregnated with a lipid solution. The top plate works as the donor compartment and the bottom one as the receiver compartment.
Parallel artificial membrane permeation assay for the blood–brain barrier (PAMPA-BBB): It was performed according to the previously reported [26] method established by Lu and coworkers [27].

[6] = design: method as in Literature (reference not given); settings: absorbed fraction of PAMPA-GIT controls; ref Literature (reference not given); cited from earlier work
PAMPA-GIT permeability = type: in vitro ADME; settings: for Papp at 5 h, 0.5 mM: PAMPA-GIT, room temperature, read-out: Pe (Experimental); for Fa%: PAMPA-GIT predicted absorbed fraction, 0–30% low, 30–69% medium, 70–100% high absorption
From the text: as §2
Parallel artificial membrane permeation assay for gastrointestinal tract (GIT-PAMPA): 1% (w/v) phosphatidylcholine was mixed with dodecane as a lipid solution to impregnate the PVDF membrane between the donor and receiver plates to stimulate intestinal permeability. […] A total of 180 µL of the mixture of PBS and DMSO (v/v 95:5) was added to the recipient plate, and 180 µL of the test solution was added to the donor plate. Immediately and carefully, the donor plate was placed above the receiver plate and incubated for 5 h at room temperature. The solution captured on the receptor plate was removed and subsequently analyzed by a UV detector (SpectraMax 5®—Molecular Devices, Sao Jose, CA, USA). The experiments were performed in quadruplicate.

MDA-MB435 = tested on: MDA-MB435; design: method as in PMID 16722619, PMID 21488686; settings: lowest IC50 value among cancer cell lines; cited from earlier work
[7] = HCT-116, 72 h, read-out: IC50 (95% CI) HCT-116
[8] = Homo sapiens, 72 h, read-out: IC50 (95% CI) PC-9

In the case of `COc1ccc(/C=C\c2cc(OC)c(OC)c(OC)c2)cc1O` [CA4, Combretastatin A-4], the IC50 (MDA -MB231) is listed as 110 nM, the IC50 (N-87, gastric carcinoma) is listed as 3340 nM and the IC50 [1] is listed as 4.7 nM. The IC50 (SF-295, glioblastoma) was 8 nM, the IC50 [2] was 35 nM and the IC50 ([3]; HCT-116, 48 h, read-out: IC50 (95% CI) HCT-116 48 h) was 200 nM. The IC50 [3, 7] was 2.1 nM, the IC50 ([3]; HCT-116, 72 h, read-out: IC50 (95% CI) HCT-116 72 h) was 2.1 nM and the “SI HPBMC/HCT-116” value [3] was 2.24. The IC50 (MCF-7) was 10 nM, the IC50 [4] was 8 nM and the IC50 ([5]; Homo sapiens, 24 h, read-out: IC50 (95% CI) PC-9 24 h) was 2600 nM. For the same compound, the IC50 ([5]; Homo sapiens, 48 h, read-out: IC50 (95% CI) PC-9 48 h) was 1380 nM, the IC50 [5, 8] was 110 nM and the IC50 ([5]; Homo sapiens, 72 h, read-out: IC50 (95% CI) PC-9 72 h) was 110 nM. The “SI HPBMC/PC-9” value ([5]; 72 h) was 0.043.

For `Cn1c(=O)c2c(ncn2C)n(C)c1=O` [Caffeine], the “Pe1 (Experimental)” value (PAMPA-BBB permeability; PAMPA-BBB) was 0.36 10–6 cm/s and the “Pe2 (Experimental)” value (PAMPA-BBB permeability; PAMPA-BBB) was −0.10 10–6 cm/s.

In the case of `CO/N=C(\C(=O)N[C@@H]1C(=O)N2C(C(=O)O)=C(CSc3nc(=O)c(=O)[nH]n3C)CS[C@H]12)c1csc(N)n1` [Ceftriaxone], the “Fa (Literature)” value [6] is given as 1.

`O=c1ccc2ccccc2o1` [Coumarin] showed a Papp at 5 h, 0.5 mM (PAMPA-GIT permeability) of 26 ×10⁻⁶ cm/s.

For `O=C(O)Cc1ccccc1Nc1c(Cl)cccc1Cl` [Diclofenac], the Fa% (PAMPA-GIT permeability) is listed as 100.0% and the “Fa (Literature)” value [6] is listed as 100.

In the case of `CCn1cc(C(=O)O)c(=O)c2cc(F)c(N3CCNCC3)nc21` [Enoxacin], the Papp (PAMPA-BBB permeability; PAMPA-BBB classification: absorbed by the Central Nervous System, read-out: CNS Permeability) is reported as less than 1.13 ×10⁻⁶ cm/s, the Papp (PAMPA-BBB permeability; PAMPA-BBB, mean, read-out: Pe (Experimental Mean)) is reported as 0.3 ×10⁻⁶ cm/s and the “Pe1 (Experimental)” value (PAMPA-BBB permeability; PAMPA-BBB) is reported as 0.48 10–6 cm/s. For the same compound, the “Pe2 (Experimental)” value (PAMPA-BBB permeability; PAMPA-BBB) was 0.06 10–6 cm/s.

For `COc1cc(C(=O)NN=Cc2ccccc2)cc(OC)c1OC` [LASSBio-1586], the IC50 (N-87, gastric carcinoma) is given as 820 nM, the IC50 [1] is given as 1340 nM and the IC50 (MDA-MB435) is given as 64 nM. It also gave an IC50 (SF-295, glioblastoma) of 260 nM, an IC50 [2] of 2830 nM and an IC50 [3, 7] of 320 nM. For the same compound, the “SI HPBMC/HCT-116” value [3] was 4.2, the IC50 [4] was 920 nM and the IC50 [5, 8] was 750 nM. For the same compound, the “SI HPBMC/PC-9” value ([5]; 72 h) was 1.8.

With `CCn1cc(C(=O)O)c(=O)c2cc(F)c(N3CCNCC3)cc21` [Norfloxacin] the Fa% (PAMPA-GIT permeability) was 51.39%.

`CCOc1cc2ncc(C#N)c(Nc3ccc(F)c(Cl)c3)c2cc1NC(=O)/C=C/CN(C)C` [PELITINIB, Pelitinib] gave an IC50 (N-87, gastric carcinoma) of 330 nM, an IC50 [2] of 4400 nM and an IC50 ([5]; read-out: IC50 (95% CI) PC-9, 72 h incubation, MTT) of 530 nM.

With `CNC(=C[N+](=O)[O-])NCCSCc1ccc(CN(C)C)o1` [Ranitidine] the Fa% (PAMPA-GIT permeability) was 16.50% and the Papp at 5 h, 0.5 mM (PAMPA-GIT permeability) was 0.2 ×10⁻⁶ cm/s.

With `CCN(CC)CCNC(=O)c1c(C)[nH]c(/C=C2\C(=O)Nc3ccc(F)cc32)c1C` [SUNITINIB, Sunitinib] the IC50 (N-87, gastric carcinoma) was 10900 nM and the IC50 [2] was 4480 nM.
